In paper PMC11206507, “Unraveling the Impact of Six Pentacyclic Triterpenes Regulating Metabolic Pathways on Lung Carcinoma Cells” (Pharmaceuticals, 2024):
Like-named read-outs stand apart in the source and are kept apart here.

Assays:
NSCLC A549 cells [1] = test system: NSCLC A549 cells; parameters: method as in PMID 31338398; settings: cited from earlier work; for Cytotoxicity in A549 cells at the highest concentration: 100 μM; for IC50: 24 h, MTS/PMS, already obtained by the authors
[2] = test system: DNA damage machinery in A549 cells; experiment: DNA damage assay (anti-pH2AX / anti-pATM, flow cytometry); type: cell-based, human; settings: A549, IC50, 24 h, vs untreated cells
Experimental: (§1) We used flow cytometry to analyze several cellular mechanistic pathways in A549 cells after incubation with the triterpenes. In general, the cells were seeded in a 6-well plate at a density of 1 × 10^6 cells/mL and incubated for 24 h in supplemented DMEM. After 24 h, the A549 cells were treated with the triterpenes, following each manufacturer’s protocol. All of the following experiments were performed in a Muse® Cell Analyzer (EMD Millipore Corporation, Temecula, CA). The instrument was calibrated before each assay using the Muse® System Check Kit (Luminex MCH100101, Luminex Corporation). Each assay was run at least in two independent experiments. For each experiment, all samples were analyzed in triplicate in the instrument and the capillary line was washed after each sample run to avoid artifacts. In addition, to address the issue of cell doublets, we used the Muse® Cell Dispersal Reagent (Luminex Corporation) in all experiments. The concentration of the triterpenes in each assay was selected depending on the cellular concentration necessary to generate the gain signal in the instrument. This means that we attempted to select concentrations avoiding excessive cytotoxicity to accurately determine the respective signal from each assay.
Then, the A549 cells were scraped and centrifuged. The pellet was suspended in the assay buffer from the Luminex MCH200107 kit (Luminex Corporation). […]

LC3-II = experiment: Autophagy induction assay (LC3 antibody, flow cytometry); type: cell-based, human; settings: for Autophagic response (in words): A549, IC25, 24 h, vs controls (untreated ratio 0.8, starving ratio 1)
Experimental: as §1
The Muse® Autophagy LC3 Antibody-Based Kit (Luminex MCH200109, Luminex Corporation) was used to determine autophagy activation by monitoring lipidated LC3-II. After the A549 cells were treated with the triterpenes (IC25) for 24 h, autophagy reagent A was added for 4 h to prevent the lysosomal degradation of LC3-II. Then, the cells were detached and centrifuged. The pellet was suspended and incubated for 30 min in the autophagy reagent B containing anti-LC3-II mouse monoclonal antibody. Finally, the cell pellet was washed and suspended in fresh assay buffer for measurement. The autophagy response was calculated using the following formula:
Autophagy ratio = mean autophagy value of treated or untreated cells/mean autophagy value of starving cells.
The starving cells were labeled ‘No supp’ as non-supplemented cells. These served as the positive signal for autophagy and were designated a ratio of 1 since they were compared to themselves. A ratio ≥1 indicates the activation of the autophagic response.

[3] = MTS/PMS cell viability, MRC5; type: cell-based; settings: human, MRC5 normal lung fibroblast cells
Experimental: (§2) The 50% inhibitory concentration (IC50) of some of these triterpenes in A549 NSCLC cells were previously determined by us. A similar procedure was performed to determine the IC50 of the triterpenes in a normal lung fibroblast cell line (MRC5). In brief, the A549 and MRC5 cells were seeded into 96-well plates at a density of 1 × 10^5 cells/mL in supplemented DMEM medium. The cells were treated with specific concentrations (A549: 5, 10, 25, 50, 75, 100, 125,150, 175, 200 μM; MRC5: 5, 10, 25, 50, 75, 100 μM) of the triterpenes and incubated for 24 h. Then, 10 uL of the MTS reagent from the CellTiter 96® Aqueous Non-Radioactive Cell Proliferation Assay (Promega G5421) was added to each well. Then, we incubated the plates at 37 °C and in a 5% CO2 atmosphere for 1 h. After incubation, the absorbance was measured at 492 nm (n = 8) in a microplate reader spectrophotometer (Thermoscientific Multiskan FC). The cell viability was calculated as follows:% Viability = (sample absorbance − sample media absorbance)/(untreated cells’ absorbance − untreated cells’ media absorbance) × 100
The cell viability data were presented by plotting the values with an average of eight measurements for each treatment (mean ± SD) in at least three independent experiments. The IC50 values were calculated with the GraphPad Prism 9 software (Prism 9; GraphPad by Dotmatics, San Diego, CA, USA) using the dose–response curve. The data were normalized by the non-linear fit of the log (drug inhibition) vs. normalized response variable slope to obtain the best fit IC50 and R-squared values.

MAPK/PI3K = MAPK/PI3K protein expression (dual pathway activation kit, flow cytometry); type: cell-based, human; settings: for MAPK/PI3K expression (in words): A549, IC25, 24 h, vs untreated cells; for MAPK/PI3K inhibition: summary, NSCLC A549 cells; on MAPK/PI3K inhibition: key: '✔' means induction; '-' means non-induction of any of the tested processes
Experimental: as §1
The Muse® P13K/MAPK Dual Pathway Activation Kit (Luminex MCH200108, Luminex Corporation) was used to determine MAPK/PI3K expression. After the incubation treatment with the triterpenes (IC25) for 24 h, the A549 cells were scraped, centrifuged, and washed once with 1× PBS. Next, the fixation buffer was incubated for 10 min and then the permeabilization buffer for another 10 min. Both incubations were performed on ice. Later, the antibody cocktail containing anti-phospho-Akt and anti-phospho-ERK1/2 was incubated for 30 min. Afterward, the cell pellet was washed and suspended in fresh assay buffer for measurement.

NSCLC A549 cells [4] = experiment: MTS/PMS cell viability, A549; type: cell-based, human; on TI > 1: key: '✔' means induction; '-' means non-induction of any of the tested processes
Experimental: as §2, with “A” for “The 50% inhibitory concentration (IC50) of some of these triterpenes in A549 NSCLC cells were previously determined by us. A”, “The cells were treated with specific concentrations (A549: 5, 10, 25, 50, 75, 100, 125,150, 175, 200 μM; MRC5: 5, 10, 25, 50, 75, 100 μM) of the triterpenes and incubated for 24 h.” left out
The cell viability data were presented by plotting the values with an average of eight measurements for each treatment (mean ± SD) in at least three independent experiments. The IC50 values were calculated with the GraphPad Prism 9 software (Prism 9; GraphPad by Dotmatics, San Diego, CA, USA) using the dose–response curve.

A549 cells [5] = experiment: Mitochondrial ROS production assay (DHE, flow cytometry); type: cell-based, human; settings: A549, IC25, 24 h; group average
Experimental: as §1
The production of reactive oxygen species (ROS) by mitochondria was determined using the Oxidative Stress Kit (Luminex MCH100111, Luminex Corporation). After the A549 cells were treated with the triterpenes (IC25) for 24 h, the cells were scraped and centrifuged. For ROS, the cell pellet was incubated with dihydroethidium (DHE) dye for 1 h at 37 °C.

STAT3 gene = experiment: RT-qPCR gene expression of STAT3; type: cell-based, human
Experimental: (§3) A549 cells were seeded into 6-well plates at a density of 1 × 10^6 cells/mL in supplemented DMEM. The cells were incubated with the triterpenes (IC25) for 24 h. Total RNA was extracted from the cells using the TRIzol reagent (Invitrogen Corporation, Carlsbad, CA, USA) according to the manufacturer’s instructions. The purity and concentration of RNA were assessed using a NanoDrop spectrophotometer (Thermo Fisher Scientific). cDNA was synthesized using the High-Capacity cDNA Reverse Transcription Kit (Applied Biosystems) according to the manufacturer’s instructions.
(§4) RT-qPCR was performed on a StepOnePlus® Real-Time PCR System (Thermo Fisher Scientific) using TaqMan Gene Expression Assays (Applied Biosystems) for PDL1 (CD274; Assay ID: Hs01125297_m1), ribonucleotide reductase (RR) M1 (Assay ID: Hs01040697_m1), and STAT3 (Assay ID: Hs01047586_g1). Each reaction consisted of 10 ng of cDNA, TaqMan Gene Expression Master Mix (Applied Biosystems), and TaqMan probes. The PCR cycling conditions were as follows: 95 °C for 10 min, followed by 40 cycles of 95 °C for 15 s and 60 °C for 60 s. The relative gene expression levels were calculated using the ΔΔCt method. GAPDH (Assay ID: Hs02758991_g1) was used as the endogenous control for normalization.
(§5) All RT-qPCR experiments were performed at least in triplicate. All data were expressed by plotting values with an average of four measurements for each treatment condition as the mean ± SD and analyzed with the software GraphPad Prism 9. Statistical analysis was performed using one-way analysis of variance (ANOVA) to compare the mean value of each treated type of cells versus the control (untreated cells). The statistical significance defined by the software for p values was **** < 0.0001, *** from 0.001 to 0.0001, ** from 0.001 to 0.01, * from 0.01 to 0.05, and non-significant (ns) ≥ 0.05.

RRM1 gene = experiment: RT-qPCR gene expression of ribonucleotide reductase M1; type: cell-based, human
Experimental: as §3
as §4, with “GAPDH (Assay ID: Hs02758991_g1) was used as the endogenous control for normalization.” left out
All RT-qPCR experiments were performed at least in triplicate. All data were expressed by plotting values with an average of four measurements for each treatment condition as the mean ± SD and analyzed with the software GraphPad Prism 9. […]

A549 cells [6] = experiment: Total ROS production assay (DCF); type: cell-based, human; settings: A549, IC25 (CisPt 25 μM), 24 h
Experimental: The production of total ROS was determined using the 2′,7′-dichlorodihydrofluorescein diacetate (DCF) fluorescent dye. A549 cells were seeded in a concentration of 1 × 10^5 cells/mL into black 96-well plates with a clear bottom. After 24 h, the cells were incubated with the triterpenes (IC25) and controls for 24 h. Then, 50 μL of DCF (10 μM) was added to each well and they were incubated for 1 h at room temperature. Then, the fluorescence of each well was measured (Ex/Em = 485/530 nm) in the Tecan® M200 plate reader.
This experiment was performed in triplicate. All data were expressed by plotting the values as an average of three measurements for each treatment condition as the mean ± SD and analyzed with the software GraphPad Prism 9. Statistical analysis was performed using one-way analysis of variance (ANOVA) to compare the mean value of each treated type of cells versus the control (untreated cells). The statistical significance defined by the software for p values was **** < 0.0001, *** from 0.001 to 0.0001, ** from 0.001 to 0.01, * from 0.01 to 0.05, and non-significant (ns) ≥ 0.05.

PDL1 gene = experiment: RT-qPCR gene expression of PDL1; type: cell-based, human; settings: A549, IC25 (CisPt 25 μM), 24 h
Experimental: as §3, §4, §5

| SMILES | Cytotoxicity in A549 cells at the highest concentration (NSCLC A549 cells [1]) | IC50 (NSCLC A549 cells [1]) [µM] | Autophagic response (in words) (LC3-II) | IC50 at 24 h [3] [µM] | MAPK/PI3K expression (in words) (MAPK/PI3K) | MAPK/PI3K inhibition (MAPK/PI3K) | further results |
| --- | --- | --- | --- | --- | --- | --- | --- |
| CC[C@H](CC[C@@H](C)[C@H]1CC[C@H]2[C@@H]3CC=C4C[C@@H](O)CC[C@]4(C)[C@H]3CC[C@]12C)C(C)C [β-sitosterol, reference compound] | did not kill A549 cells |  |  |  |  |  |  |
| C[C@H]1[C@H](C)CC[C@]2(C(=O)O)CC[C@]3(C)C(=CC[C@@H]4[C@@]5(C)C[C@@H](O)[C@H](O)[C@@](C)(CO)[C@@H]5CC[C@]43C)[C@H]12 [AsA, asiatic acid] |  | 59 ± 6 | induced an autophagic response similar to that of CisPt | 38 ± 2 | did not affect the expression of MAPK/PI3K | - | Activation of the DNA damage machinery (in words) [2]: caused the activation of the DNA damage machinery; Autophagy inhibition (LC3-II; summary, NSCLC A549 cells): -; TI (NSCLC A549 cells [4]; TI = MRC5 IC50/A549 IC50, >1 means higher selectivity): 0.64; TI > 1 (NSCLC A549 cells [4]; summary, MRC5 vs A549): - |
| CC(C)CCC[C@@H](C)[C@H]1CC[C@H]2[C@@H]3CC=C4C[C@@H](O)CC[C@]4(C)[C@H]3CC[C@]12C [cholesterol, reference compound] | did not kill A549 cells |  |  |  |  |  |  |
| CC1(C)CC[C@]2(C(=O)O)CC[C@]3(C)C(=CC[C@@H]4[C@@]5(C)CC[C@H](O)C(C)(C)[C@@H]5CC[C@]43C)[C@@H]2C1 [OleA, oleanolic acid] |  | 43 ± 5 | inhibit the LC3-II activity | 86 ± 2 | did not affect the expression of MAPK/PI3K | - | Amount of mROS, on average of the three named triterpenes, compared to the untreated cells (A549 cells [5]): 26.2%; STAT3 gene expression (in words) (STAT3 gene; A549, IC25, 24 h): did not inhibit; STAT3 downregulation (STAT3 gene; summary, NSCLC A549 cells): -; RRM1 gene expression (in words) (RRM1 gene; A549, IC25, 24 h, vs untreated cells): did not downregulate RR; RRM1 downregulation (RRM1 gene; summary, NSCLC A549 cells): -; TI (NSCLC A549 cells [4]): 2 |
| N.N.[Cl][Pt][Cl] [CisPt, cis-diamminedichloroplatinum (II), reference compound] |  |  |  |  |  |  | Total ROS production (in words) (A549 cells [6]): not statistically significant; PDL1 gene expression (in words) (PDL1 gene): clearly upregulated PDL1 |
